From patent US4644012A, “Treatment for osteoporosis” (Takeda Chemical Industries, Ltd., priority 1983, dated 1987)
Ends that are not written are not given here.

Assays:
[1] = test system: rat fetal long bone; experiment: Bone resorption inhibiting activity in rat fetal long bone culture (45Ca release); type: cell-based, Sprague-Dawley rat; conditions: 3 days
Experimental: Bone resorption inhibiting activity of 7-(1-hydroxycarbonylethyl)oxy-3-phenyl-4H-1-benzopyran-4-one (hereinafter referred to as "compound A") in rat fetal long bone culture
(§1) Determination of bone resorption was performed by the method of Raisz [J. Clin. Invest. 44, 103-116 (1965)]. Thus, a Sprague-Dawley rat on the 19th day of pregnancy was subcutaneously injected with 50μ Ci of ^45 Ca (isotope of calcium, CaCl2 solution), and was laparotomized on the following day. The embryos were aseptically taken out, the forelimbs (radius and ulna) were cut off from the trunk under a binocular dissecting microscope, and the connective tissue and cartilage were removed as much as possible to prepare bone samples. Each bone sample was preincubated at 37° C. for 24 hours in 0.6 ml of the medium containing 2 mg/ml of bovine serum albumin in BGJb medium (Fitton-Jackson modification) [GIBCO Laboratories, Grand Island, N.Y. 14072 U.S.A.]. Then, the sample was further incubated for 3 days in the same medium as above in which 10 μg/ml of compound A had been incorporated. Then, the radioactivity of ^45 Ca in the medium and that of ^45 Ca in the bone were measured and the percentage (%) of ^45 Ca released from the bone into the medium was calculated by the following formula. [formula]
As control, the bones of the embryos from the same litter were similarly incubated in the absence of compound A for 3 days.

[2] = test system: ICR mice; conditions: mouse, in vivo
Experimental: (§2) Five-week-old ICR mice and 5-week-old Sprague-Dawley rats were used in groups of 10 males and 10 females, and suspensions of compound A or compound B in olive oil were administered orally [2,500, 5,000 and 10,000 mg/kg of each compound] or subcutaneously [1,250, 2,500 and 5,000 mg/kg]. The animals were kept under observation for 14 days.

[3] = test system: Sprague-Dawley rats; conditions: rat, in vivo
Experimental: as §2

[4] = test system: rat fetal long bone; experiment: Potentiating effect on the bone resorption inhibiting action of calcitonin, PTH-stimulated rat fetal long bone culture (45Ca release); type: cell-based, Sprague-Dawley rat; conditions: for potentiation of the inhibitory action of calcitonin on PTH-stimulated bone resorption (in words): calcitonin 3 mU/ml, compound 25 μg/ml
Experimental: as §1
Potentiating effect of 7-(1-hydroxycarbonylethyl)-oxy-3-(4-hydroxyphenyl)-4H-1-benzopyran-4-one (hereinafter referred to as "compound B") and 7-(1-ethoxycarbonylethyl)-oxy-3-phenyl-4H-1-benzopyran-4-one (hereinafter referred to as "compound C") on the bone resorption inhibiting action of calcitonin in rat fetal long bone culture
The bone samples prepared in the same manner as Test Example 1 were preincubated for 24 hours in the same medium as that prepared in Test Example 1, which contains bovine serum albumin in BGJb medium (Fitton-Jackson modification). Then, in the concomitant presence of PTH (parathyroid hormone, a bone resorption stimulant), calcitonin and compound B or compound C, the samples were further incubated for 3 days and the percentage of ^45 Ca released into the medium was calculated by means of the same formula as that in Test Example 1. […]

Row | Compound | suppression of bone resorption (in words) ([1]; 10 μg/ml) | 45Ca (%) released ([1]; compound 10 μg/ml, 37° C, mean ± standard deviation, six bones, control 23.6 ± 3.9, * p < 0.05 vs control) [%] | LD50 [2] | LD50 [3] | potentiation of the inhibitory action of calcitonin on PTH-stimulated bone resorption (in words) [4] | 45Ca (%) released ([4]; control II group: PTH + calcitonin 3 mU/ml, no compound, 3 days, PTH alone (control I) 39.7 ± 1.5) [%]
1 | CC(Oc1ccc2c(=O)c(-c3ccccc3)coc2c1)C(=O)O (stereo not drawn) [compound A, 7-(1-hydroxycarbonylethyl)oxy-3-phenyl-4H-1-benzopyran-4-one] | suppressed bone resorption | 18.5 ± 2.2 | could not be calculated | could not be calculated | – | –
2 | CC(Oc1ccc2c(=O)c(-c3ccc(O)cc3)coc2c1)C(=O)O (stereo not drawn) [compound B, 7-(1-hydroxycarbonylethyl)-oxy-3-(4-hydroxyphenyl)-4H-1-benzopyran-4-one] | – | – | could not be calculated | could not be calculated | potentiated the inhibitory action of calcitonin on PTH-stimulated bone resorption | –
3 | CCOC(=O)C(C)Oc1ccc2c(=O)c(-c3ccccc3)coc2c1 (stereo not drawn) [compound C, 7-(1-ethoxycarbonylethyl)-oxy-3-phenyl-4H-1-benzopyran-4-one] | – | – | – | – | potentiated the inhibitory action of calcitonin on PTH-stimulated bone resorption | –
4 | calcitonin: calcitonin, bone resorption inhibitor used with PTH in control II group (CGNLSTCMLGTYTQDFNKFHTFPQTAIGVGAP; ends and bridges not checked; cysteine pairing not given here; UniProt P01258 85-116, looked up) [reference compound] | – | – | – | – | – | 35.9 ± 4.9
